Data as given in patent publication US11767319B2, “Crystalline forms of a selective c-kit kinase inhibitor” (Third Harmonic Bio, Inc., priority 2020, dated 2023).
Entries after “also recorded” stand apart in the source; their conditions may differ. Blank lines part the entries; values can stand above or below the compound they belong to.

Key:
Assay type in all cases: physicochemical
[1] = Slurry experiments in SGF; settings: 37° C., 500 rpm
Experimental: About 200 mg of sodium chloride and about 100 mg Triton X-100 was weighted into a 100-mL volumetric flask. About 100 mL of purified water was added to the flask and the solution was sonicated until all solids were completely dissolved. 1 M HCl was added to adjust the pH to 1.8 and the solution was mixed well and the pH was checked with a pH meter.
Competitive slurry experiments were performed for Forms A, H^A, H^B, C and D in SGF. About 10 mg of each form was added into separate HPLC vials followed by addition of 1.0 mL SGF in order to form slurries. The slurries were heated to 37° C. and stirred at 500 rpm. After 2 h or 24 h, the samples were centrifuged and the solids were collected for XRPD testing.

[2] = Hydration mapping starting with Form A
Experimental: To establish the hydration map of compound 1, solutions with varying water activity (aw) were prepared and the aw was measured using a water activity meter. Table 13 below details the solvent systems investigated and their corresponding measured water activities.
23×20 mg of Form A of compound 1 was weighed into vials. 1 mL of solvent (see tables above) was added to each vial to form a slurry. After manual shaking for a few seconds, where solutions were observed, an additional ˜10 to 20 mg of solid was added to produce a slurry. Additional solid was added to the 2-MeTHF, water/2-MeTHF (1:99% v/v), acetone/water (aw of 0.92) and methanol/water (aw of 0.11) samples. All slurries were then agitated for 24 h at 25° C. After 24 h, aliquots of solid were isolated via centrifugal filtration and analysed by XRPD. The remaining slurries were agitated for a further 5 days (total of 6 days). The solids were isolated and analysed by XRPD. All identified forms were analysed by XRPD, TG/DSC and ^1H NMR (where sufficient material was available).

[3] = Ethanol/hydrocarbon mixtures slurry study
Experimental: Using the methods described above for the Form A input and amorphous input experiments, 5×20 mg of Form A slurries and 5×20 mg of amorphous input slurries were prepared by adding 1 mL of solvent (see Table 16 below) to each vial and the resulting slurries were agitated for 24 h at 25° C. After 24 h, aliquots of solid were isolated via centrifugal filtration and analysed by XRPD.

[4] = Form investigation in buffered media; settings: for XRPD Pattern / pH (24 h): 24 h at 25° C.
Experimental: To investigate the polymorphic landscape of compound 1 in buffered systems, 5×20 mg of Form A slurries and 5×20 mg of amorphous slurries (amorphous material prepared using the method described in the above hydration mapping experiments) were prepared by adding 1 mL of buffer to each vial and the resulting slurries were agitated for 24 h at 25° C. The pH was measured post-buffer addition and after 24 h agitation. After 24 h, aliquots of solid were isolated via centrifugal filtration and analysed by XRPD.

[5] = Dynamic Vapor Sorption (DVS) of Form C
Experimental: Approximately, 10 mg of sample was placed into a mesh vapor sorption balance pan and loaded into a DVS-1/DVS Intrinsic/DVS Advantage dynamic vapor sorption balance by Surface Measurement Systems. The sample was subjected to a ramping profile from 40-90% relative humidity (RH) at 10% increments, maintaining the sample at each step until a stable weight had been achieved (dm/dt 0.004%, minimum step length 30 min, maximum step length 500 min) at 25° C. After completion of the sorption cycle, the sample was dried using the same procedure to 0% RH and then a second sorption cycle back to 40% RH. Two cycles were performed. The weight change during the sorption/desorption cycles were plotted, allowing for the hygroscopic nature of the sample to be determined. XRPD analysis was then carried out on any solid retained.
FIGS. 1D and 1E depict DVS plots of Form C of compound 1. […] Below 20% RH, Form C experienced a mass loss of 8.6%, about equal to 2 equivalents of water.
(§1) FIG. 1F depicts a set of XRPD patterns of Form C of compound 1, comparing the originally isolated form, material after DVS experiments and material after being dried under vacuum. […] Form G was also observed after vacuum drying of Form C.

[6] = Vacuum drying of Form C; settings: dried under vacuum
Experimental: as §1
Procedure A: Form C of compound 1 was dried under vacuum at 40° C. for about 2 hours. After drying Form G was recovered.

[7] = Competitive slurry experiments among anhydrates (IPA/IPAc); settings: at RT and 50° C., IPA/IPAc slurries
Experimental: Competitive slurry experiments were performed in IPA/IPAc at RT/50° C. between anhydrates Form A of compound 1 and Form D of compound 1. Form A of compound 1 was added into each solvent to form a slurry at RT or 50° C. and was stirred for 2 h. The slurries were then filtered to obtain saturated solution. Around 10 mg each of Form A of compound 1 and Form D of compound 1 were added into each solution to form a mixed slurry at RT or 50° C. […] The formation of Form H^A of compound 1 is postulated to be caused by residual water in the solvents or due to ambient humidity (˜35% humidity during slurry experiments).

[8] = Acetone/Water, aw 0.1363, 25° C.
[9] = Acetone/Water, aw 0.2621, 25° C.
[10] = Acetone/Water, aw 0.5455, 25° C.
[11] = EtOH/Heptane, aw 0.0300, 25° C.
[12] = Water/2-MeTHF, aw 0.5286, 25° C.

XRPD at 2 h [1]: transformed to Form C
XRPD at 24 h [1]: transformed to Form C
XRPD pattern observed, 24 h ([2]; 2-MeTHF, aw 0.0378, 25° C.): Form A
XRPD pattern observed, 6 Days ([2]; 2-MeTHF, aw 0.0378, 25° C.): Form A
XRPD pattern observed, 24 h [2, 8]: Form H^A
XRPD pattern observed, 6 Days [2, 8]: Form H^A
XRPD pattern observed, 24 h [2, 9]: Form H^A
XRPD pattern observed, 6 Days [2, 9]: Form H^A
XRPD pattern observed, 24 h [2, 10]: Form H^A
XRPD pattern observed, 6 Days [2, 10]: Form H^A
XRPD pattern observed, 6 Days ([2]; Acetone/Water, aw 0.7082, 25° C.): Form H^A
XRPD pattern observed, 24 h [2, 11]: Form A
XRPD pattern observed, 6 Days [2, 11]: Form A
XRPD pattern observed, 24 h ([2]; EtOH/Water, aw 0.1580, 25° C.): Form H^A
XRPD pattern observed, 6 Days ([2]; EtOH/Water, aw 0.1580, 25° C.): Form H^A
XRPD pattern observed, 24 h ([2]; EtOH/Water, aw 0.3377, 25° C.): Form H^A
XRPD pattern observed, 6 Days ([2]; EtOH/Water, aw 0.3377, 25° C.): Form H^A
XRPD pattern observed, 24 h ([2]; EtOH/Water, aw 0.4986, 25° C.): Form H^A
XRPD pattern observed, 6 Days ([2]; EtOH/Water, aw 0.4986, 25° C.): Form H^A
XRPD pattern observed, 24 h ([2]; EtOH/Water, aw 0.7600, 25° C.): Form H^A
XRPD pattern observed, 6 Days ([2]; EtOH/Water, aw 0.7600, 25° C.): Form H^A
XRPD pattern observed, 24 h ([2]; EtOH/Water, aw 0.9005, 25° C.): Form A
XRPD pattern observed, 24 h ([2]; MeCN/Water, aw 0.1060, 25° C.): Form H^A
XRPD pattern observed, 6 Days ([2]; MeCN/Water, aw 0.1060, 25° C.): Form H^A
XRPD pattern observed, 24 h ([2]; MeCN/Water, aw 0.3664, 25° C.): Form H^A
XRPD pattern observed, 6 Days ([2]; MeCN/Water, aw 0.3664, 25° C.): Form H^A
XRPD pattern observed, 24 h ([2]; MeCN/Water, aw 0.5573, 25° C.): Form H^A
XRPD pattern observed, 6 Days ([2]; MeCN/Water, aw 0.5573, 25° C.): Form H^A
XRPD pattern observed, 6 Days ([2]; MeCN/Water, aw 0.7300, 25° C.): Form H^A
XRPD pattern observed, 24 h ([2]; MeOH/Water, aw 0.0963, 25° C.): Form H^A
XRPD pattern observed, 6 Days ([2]; MeOH/Water, aw 0.0963, 25° C.): Form H^A
XRPD pattern observed, 24 h ([2]; MeOH/Water, aw 0.3242, 25° C.): Form H^A
XRPD pattern observed, 6 Days ([2]; MeOH/Water, aw 0.3242, 25° C.): Form H^A
XRPD pattern observed, 24 h ([2]; MeOH/Water, aw 0.5145, 25° C.): Form H
XRPD pattern observed, 6 Days ([2]; MeOH/Water, aw 0.5145, 25° C.): Form H^A
XRPD pattern observed, 24 h ([2]; MeOH/Water, aw 0.6965, 25° C.): Form H
XRPD pattern observed, 6 Days ([2]; MeOH/Water, aw 0.6965, 25° C.): Form H
XRPD pattern observed, 24 h ([2]; MeOH/Water, aw 0.9294, 25° C.): Form A
XRPD pattern observed, 6 Days ([2]; MeOH/Water, aw 0.9294, 25° C.): Form C
XRPD pattern observed, 24 h [2, 12]: Form H^A
XRPD pattern observed, 6 Days [2, 12]: Form H^A
XRPD pattern observed ([3]; EtOH/Cyclohexane (50:50% v/v), aw 0.025, 24 h at 25° C.): Form A
XRPD pattern observed ([3]; EtOH/Dodecane (50:50% v/v), aw 0.024, 24 h at 25° C.): Form A
XRPD pattern observed ([3]; EtOH/Hexane (50:50% v/v), aw 0.018, 24 h at 25° C.): Form A
XRPD pattern observed ([3]; EtOH/Methylcyclohexane (50:50% v/v), aw 0.019, 24 h at 25° C.): Form A
XRPD pattern observed ([3]; EtOH/Octane (50:50% v/v), aw 0.019, 24 h at 25° C.): Form A
XRPD Pattern ([4]; NaOH (0.2M)): Form H^A and Form C
XRPD Pattern ([4]; pH 1.2 (HCl—KCl)): HCl Salt Form
XRPD Pattern ([4]; pH 4.5 (acetate)): Form F
XRPD Pattern ([4]; pH 6.8 (phosphate)): Form H^A
XRPD Pattern ([4]; pH 8 (PBS)): Form H^A
pH (Post-Buffer Addition) ([4]; slurry in NaOH (0.2M)): 11.98
pH (24 h) ([4]; slurry in NaOH (0.2M)): 11.91
pH (Post-Buffer Addition) ([4]; slurry in pH 1.2 (HCl—KCl)): 1.20
pH (24 h) ([4]; slurry in pH 1.2 (HCl—KCl)): 1.19
pH (Post-Buffer Addition) ([4]; slurry in pH 4.5 (acetate)): 4.63
pH (24 h) ([4]; slurry in pH 4.5 (acetate)): 4.62
pH (Post-Buffer Addition) ([4]; slurry in pH 6.8 (phosphate)): 6.87
pH (24 h) ([4]; slurry in pH 6.8 (phosphate)): 6.88
pH (Post-Buffer Addition) ([4]; slurry in pH 8 (PBS)): 8.04
pH (24 h) ([4]; slurry in pH 8 (PBS)): 8.17
SMILES: Cc1ccc(-c2noc([C@H]3C[C@@H]3F)n2)cc1NC(=O)c1cnc2ccccn12 [Form A, N-(5-(5-((1R,2S)-2-fluorocyclopropyl)-1,2,4-oxadiazol-3-yl)-2-methylphenyl)imidazo[1,2-a]pyridine-3-carboxamide]

form after DVS (XRPD) ([5]; after DVS experiments): converted into Form G
mass loss (DVS) ([5]; below 20% RH, 25° C.): 8.6%
total mass uptake (DVS) ([5]; between 20% and 90% RH, 25° C.): 0.6%
XRPD at 2 h [1]: No form change; also recorded: Form C
XRPD at 24 h [1]: No form change; also recorded: Form C
form after vacuum drying (XRPD) [6]: Form G
SMILES: Cc1ccc(-c2noc([C@H]3C[C@@H]3F)n2)cc1NC(=O)c1cnc2ccccn12 [Form C, N-(5-(5-((1R,2S)-2-fluorocyclopropyl)-1,2,4-oxadiazol-3-yl)-2-methylphenyl)imidazo[1,2-a]pyridine-3-carboxamide]

XRPD at 2 h [1]: No form change; also recorded: Form H^A
XRPD at 2 h ([1]; listed as Form H^B): No form change; also recorded: Form H^B
XRPD at 24 h [1]: No form change; also recorded: Form H^A
XRPD at 24 h ([1]; listed as Form H^B): No form change; also recorded: Form H^B
SMILES: Cc1ccc(-c2noc([C@H]3C[C@@H]3F)n2)cc1NC(=O)c1cnc2ccccn12 [Form H^A, N-(5-(5-((1R,2S)-2-fluorocyclopropyl)-1,2,4-oxadiazol-3-yl)-2-methylphenyl)imidazo[1,2-a]pyridine-3-carboxamide]
relative thermodynamic stability [7]: thermodynamically more stable than Form A
